According to publication PMC11277083, “A Natural Bioactive Peptide from Pinctada fucata Pearls Can Be Used as a Potential Inhibitor of the Interaction between SARS-CoV-2 and ACE2 against COVID-19” (International Journal of Molecular Sciences, 2024):
Where two headings read alike, the source gives them in different places. Where no end group is shown, it is not given here.

Key:
ACE2 [1] = details: reduces the affinity between spiny proteins and ACE2; cited from earlier work
ACE2 [2] = details: compared with KKCH-ACE2 affinity; cited from earlier work
[3] = test system: virus S1 protein and the ACE2 receptor; details: cited from earlier work
ACE2 protein = target: T1, ACE2 protein (Homo sapiens, UniProt Q9BYF1); test: SPR affinity for ACE2 (Biacore T200, CM5 chip); details: ACE2 on CM5 chip, 1:1 Langmuir binding model, read-out: association (Ka)
T1 construct: purchased CUSABIO (Wuhan, China) CSB-MP866317HU
T1 sequence (Q9BYF1 18-805): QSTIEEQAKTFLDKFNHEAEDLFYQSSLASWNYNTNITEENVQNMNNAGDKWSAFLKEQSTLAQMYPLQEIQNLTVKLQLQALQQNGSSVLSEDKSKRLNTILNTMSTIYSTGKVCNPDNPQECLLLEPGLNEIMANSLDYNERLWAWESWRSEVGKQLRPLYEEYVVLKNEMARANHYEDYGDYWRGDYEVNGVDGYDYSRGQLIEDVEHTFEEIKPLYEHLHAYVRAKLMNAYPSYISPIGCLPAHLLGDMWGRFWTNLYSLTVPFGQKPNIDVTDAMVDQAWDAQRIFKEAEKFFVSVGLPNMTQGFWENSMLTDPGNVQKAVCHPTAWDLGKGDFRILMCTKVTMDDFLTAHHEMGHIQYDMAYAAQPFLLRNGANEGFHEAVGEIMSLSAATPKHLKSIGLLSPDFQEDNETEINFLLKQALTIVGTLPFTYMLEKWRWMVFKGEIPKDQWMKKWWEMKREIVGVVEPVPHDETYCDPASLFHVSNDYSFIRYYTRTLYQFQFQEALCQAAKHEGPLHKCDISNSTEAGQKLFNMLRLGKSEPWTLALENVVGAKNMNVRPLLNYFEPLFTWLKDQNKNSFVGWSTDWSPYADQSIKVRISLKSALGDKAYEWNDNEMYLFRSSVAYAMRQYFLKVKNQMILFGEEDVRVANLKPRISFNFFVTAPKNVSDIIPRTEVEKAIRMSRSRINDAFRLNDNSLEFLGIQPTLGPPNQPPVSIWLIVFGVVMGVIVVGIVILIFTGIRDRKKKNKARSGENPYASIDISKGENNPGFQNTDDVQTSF
Description: The ACE2 protein (no. CSB-MP866317HU) was a recombinant human protein purchased from CUSABIO (Wuhan, China). […] The ACE2 protein was diluted to 50 μg/mL with sodium acetate at pH 4.0. The protein was fixed on the CM5 chip at a flow rate of 10 μL/min, and the coupling time was 420 s. […] Biacore T200 Control software (v.2.0) was used to collect sample data, and the 1:1 Langmuir binding model was fitted globally to determine the final KD. The binding affinity KD could be calculated from dissociation (Kd)/association (Ka).

S1-RBD/ACE2 = target: T2, S1-RBD/ACE2 (Homo sapiens, UniProt Q9BYF1); test: ELISA inhibition of S1-RBD binding to ACE2 (RayBio COVID-19 Spike ACE2 binding assay kit II); design: species or system SARS-CoV-2 (S1-RBD); details: 2 h, room temperature, 450 nm, repeated twice in each group, read-out: inhibitory rate on S1-RBD/ACE2
T2 construct: purchased RayBio (RayBiotech)
T2 sequence (Q9BYF1 18-740): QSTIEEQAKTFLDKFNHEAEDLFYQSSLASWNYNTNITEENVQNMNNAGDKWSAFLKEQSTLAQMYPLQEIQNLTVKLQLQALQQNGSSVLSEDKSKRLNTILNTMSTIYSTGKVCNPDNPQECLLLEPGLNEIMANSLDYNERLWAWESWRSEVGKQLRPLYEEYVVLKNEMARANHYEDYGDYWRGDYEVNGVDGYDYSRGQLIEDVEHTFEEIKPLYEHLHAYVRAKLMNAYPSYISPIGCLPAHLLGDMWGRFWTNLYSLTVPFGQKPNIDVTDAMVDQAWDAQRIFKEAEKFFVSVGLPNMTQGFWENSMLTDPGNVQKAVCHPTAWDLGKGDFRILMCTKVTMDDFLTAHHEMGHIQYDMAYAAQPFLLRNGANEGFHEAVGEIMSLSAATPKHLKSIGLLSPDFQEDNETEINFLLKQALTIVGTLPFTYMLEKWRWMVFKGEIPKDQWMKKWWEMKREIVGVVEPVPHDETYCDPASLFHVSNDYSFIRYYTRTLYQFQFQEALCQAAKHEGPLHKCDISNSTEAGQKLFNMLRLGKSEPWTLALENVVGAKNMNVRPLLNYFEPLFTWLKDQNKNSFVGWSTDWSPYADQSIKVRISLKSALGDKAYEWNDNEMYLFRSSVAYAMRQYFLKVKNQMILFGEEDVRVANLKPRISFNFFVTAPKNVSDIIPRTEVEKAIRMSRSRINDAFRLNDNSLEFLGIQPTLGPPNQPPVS
Description: The RayBio COVID-19 Spike ACE2 binding assay kit II (no. QHD43416) was used to detect the inhibitory effect of the KKCH peptides on the binding of the RBD protein and the ACE2 receptor protein. Using a PBS solution, KKCH was diluted to 10 μM, 90 μM, 180 μM, 360 μM, 720 μM, and 1440 μM. Then, 125 μL of test reagent was obtained by mixing different concentrations of the 10 μL KKCH peptide solutions with Fc-labeled recombinant S1-RBD protein solution. Next, 100 μL of test reagent was added to each well of a 96-well plate coated with the recombinant ACE2 protein, repeated twice in each group, and incubated at room temperature for 2 h. The plates were washed four times with a wash buffer to remove unbound S1-RBD proteins. Then, 100 μL of enzyme-labeled Anti-IgG was added to each well and incubated for 1 h, 100 μL of TMB was added at room temperature and incubated for 0.5 h, and 50 μL […] the reaction. The yellow intensity was measured at 450 nm, and the inhibition rate of the KKCH peptide was calculated.

HEK293T cells = details: for survival rate of HEK293T cells: 2 h
Vero cells = details: for survival rate of Vero cells: 2 h
SARS-CoV-2 live virus = details: 2 h
HEK293T = details: 394.10 μM; cited from earlier work

Compound: CCN(CC)CCCC(C)Nc1ccnc2cc(Cl)ccc12 (stereo not shown) [chloroquine]
- effect on ACE2 (ACE2 [1]): can prevent the glycosylation of ACE2

Compound: C[C@@]1(C(=O)O)CC[C@]2(C)CC[C@]3(C)C4=CC(=O)c5c(cc(O)c(O)c5C=O)[C@]4(C)CC[C@@]3(C)[C@@H]2C1 [demethylzeylasteral]
- Kd (ACE2 [2]): 1.74 µM

Compound: C[C@@H]1C[C@H]2[C@@H]3CCC4=CC(=O)C=C[C@]4(C)[C@@]3(F)[C@@H](O)C[C@]2(C)[C@@]1(O)C(=O)CO [dexamethasone]
- Kd (ACE2 [2]): 9.03 µM

Compound: O=c1c(-c2ccc(O)cc2)coc2c([C@@H]3O[C@H](CO)[C@@H](O)[C@H](O)[C@H]3O)c(O)ccc12 [puerarin]
- Kd (ACE2 [2]): 670 µM
- reduction of RU values of S1 protein and ACE2 [3]: 20 units

Compound: KKCHFWPFPW [KKCH]
- kon (ACE2 protein): 154000 ± 1.5e+09 M⁻¹ s⁻¹
- inhibition at 10 µM (S1-RBD/ACE2; 10 μM): 6.8%
- inhibition at 90 µM (S1-RBD/ACE2; 90 μM): 10.9%
- inhibition at 180 µM (S1-RBD/ACE2; 180 μM): 17%
- inhibition at 360 µM (S1-RBD/ACE2; 360 μM): 34%
- inhibition at 720 µM (S1-RBD/ACE2; 720 μM): 89.7%
- inhibition at 1440 µM (S1-RBD/ACE2; 1440 μM): 94.1%
- viability rate of BEAS-2B cells (BEAS-2B cells; 40 µM): 99.80%
- viability rate of BEAS-2B cells (BEAS-2B cells; 80 µM): 99.77%
- viability rate of BEAS-2B cells (BEAS-2B cells; 160 µM): 99.37%
- viability rate of BEAS-2B cells (BEAS-2B cells; 240 µM): 99.63%
- viability rate of BEAS-2B cells (BEAS-2B cells; 320 µM): 98.07%
- viability rate of BEAS-2B cells (BEAS-2B cells; 400 µM): 95.87%
- viability rate of BEAS-2B cells (BEAS-2B cells; 480 µM): 82.95%
- effect on BEAS-2B cell viability (significance) (BEAS-2B cells; less than 480 μM, p > 0.05): no significant effect on cell viability
- survival rate of HEK293T cells (HEK293T cells; 40 μM): 98.28%
- survival rate of HEK293T cells (HEK293T cells; 80 μM): 95.28%
- survival rate of HEK293T cells (HEK293T cells; 160 μM): 94.74%
- survival rate of HEK293T cells (HEK293T cells; 240 μM): 92.39%
- survival rate of HEK293T cells (HEK293T cells; 320 μM): 90.77%
- survival rate of HEK293T cells (HEK293T cells; 400 μM): 92.69%
- survival rate of HEK293T cells (HEK293T cells; 480 μM): 81.66%
- effect on HEK293T cell viability (significance) (HEK293T cells; less than 480 μM, p > 0.05): no significant effect on cell viability
- toxicity to Vero cells (significance) (Vero cells; 40 to 400 µM, p > 0.05 vs control): not toxic to the cells in this range
- survival rate of Vero cells (Vero cells; 40 μM): 97.81%
- survival rate of Vero cells (Vero cells; 80 μM): 96.97%
- survival rate of Vero cells (Vero cells; 160 μM): 98.23%
- survival rate of Vero cells (Vero cells; 240 μM): 96.21%
- survival rate of Vero cells (Vero cells; 320 μM): 95.85%
- survival rate of Vero cells (Vero cells; 400 μM): 92.64%
- survival rate of Vero cells (Vero cells; 480 μM): 90.44%
- inhibitory rate against SARS-CoV-2 (SARS-CoV-2 live virus; 10 μM): 4.97%
- inhibitory rate against SARS-CoV-2 (SARS-CoV-2 live virus; 25 μM): 11.32%
- inhibitory rate against SARS-CoV-2 (SARS-CoV-2 live virus; 50 μM): 15.40%
- inhibitory rate against SARS-CoV-2 (SARS-CoV-2 live virus; 100 μM): 17.91%
- inhibitory rate against SARS-CoV-2 (SARS-CoV-2 live virus; 150 μM): 22.41%
- inhibitory rate against SARS-CoV-2 (SARS-CoV-2 live virus; 200 μM): 32.01%
- inhibitory rate against SARS-CoV-2 (SARS-CoV-2 live virus; 350 μM): 38.31%
- inhibitory rate against SARS-CoV-2 (SARS-CoV-2 live virus; 450 μM): 54.80%

Compound: thanatin: peptide (thanatin) derived from insects
- cytotoxicity to HEK293T (HEK293T): no obvious cytotoxicity

Compound: tuftsin
- Kd (ACE2 [2]): 460 µM
